From US20260286302A1, “METHODS FOR PRODUCING A SUPER CENTRAL MEMORY CD8 T CELL SUBTYPE BY POLY(ADP-RIBOSE) POLYMERASE (PARP) INHIBITION AND USES THEREOF” (Georgetown University, priority 2023, published 2026) come the findings set out here.

Each structure is given as a SMILES string.

The test system of one assay is SIRT-1/FOXO1. The assay can be described thus: SIRT-1/FOXO1 signaling, Western blot and immunofluorescence. Format: cell-based, mouse. As to the method: pMel-1 CD8 T cells were activated with gp100 in the presence or absence of PARPi for 48 h containing glass coverslips. Cells were then washed with PBS (Mg^+ca^+), fixed for 5 min with 4% PFA and permeabilized in PBS/triton 1×. […] Finally, DAPI staining was applied. Images were acquired with a Leica TCS-SP5II upright confocal microscope (Leica Microsystems).
(In general: A western blot detects proteins with antibodies after separation by electrophoresis.)

A further assay concerns pMel-1 CD8 T cells. The assay can be described thus: Metabolomics and lipidomics of activated CD8 T cells. Format: cell-based, mouse. Conditions: PARPi-treated vs gp100 activated, 48 h. As to the method:
Targeted metabolomics method, developed in-house, was used to quantitate 270 endogenous metabolites using QTRAP® 7500 LC-MS/MS System (Sciex, MA, USA). For this purpose, 20 μL of PBS was added to the cell pellet and sample tube was plunged into dry ice for 30 seconds and 37° C. water bath for 90 seconds. This cycle was repeated for two more times and then samples were sonicated for 1 minute and 100 μL of extraction buffer (methanol/water 50/50) containing 200 ng/ml of debrisoquine (DBQ) as internal standard for positive mode and 200 ng/mL of 4-nitrobenzoic acid as internal standard for negative mode was added. The samples were vortexed for 1 min and kept on ice for 20 minutes followed by addition of 100 μL of ACN. The samples were incubated at −20° C. for 20 minutes for protein precipitation. The samples were centrifuged at 13,000 rpm for 20 minutes at 4° C. The supernatant was transferred to MS vial for LC-MS analysis. 20 μL of each prepared sample was mixed to generate the pooled QC sample.
Five microliter of the prepared sample was injected onto a Kinetex 2.6 μm polar C18 100 Å 100×3.0 mm (Phenomenex, CA, USA) using SIL-30AC autosampler (Shimadzu) connected with a high flow LC-30AD solvent delivery unit (Shimadzu) and CBM-20A communication bus module (Shimadzu) online with QTRAP 5500 (Sciex, MA, USA) operating in positive and negative ion mode. A binary solvent comprising of water with 0.1% formic acid (solvent A) and acetonitrile with 0.1% formic acid (solvent B) was used. The extracted metabolites were resolved at 0.2 mL/min flow rate. The LC gradient conditions were as follows: Initial—100% A, 0% B for 2.1 minutes; 14 minutes—5% A, 95% B till 15 minutes; 15.1 minutes—100% A, 0% B till 20 minutes. The auto sampler and oven were kept at 15° C. and 30° C., respectively. Source and gas setting for the method were as follow: curtain gas=40, CAD gas=9, ion spray voltage=1700 V in positive mode and ion spray voltage=1600 V in negative mode, temperature=350° C., ion source gas 1=30 and ion source gas 2=50. […]

For `O=C(c1cc(Cc2n[nH]c(=O)c3ccccc23)ccc1F)N1CCN(C(=O)C2CC2)CC1` [olaparib], the FOXO1 acetylation entry with SIRT-1/FOXO1 (PARPi-treated CD8 T cells) is “decrease”. The “SIRT-1 expression and activity” value in the assay on SIRT-1/FOXO1 (activated pMel-1 CD8 T cells) is given as “increased”. Besides, the “FOXO1 in the nucleus” value in the assay with SIRT-1/FOXO1 (immunofluorescence and Western blot, compared to gp100-activated cells) is “increase in accumulation and expression”. Also, the FOXO1 phosphorylation result with SIRT-1/FOXO1 (total lysate) is “significant reduction”. Besides, in the assay on pMel-1 CD8 T cells, the “TAGs (lipidomic analysis)” value is reported as “increased level”; the “metabolites related to TCA cycle (fumarate, malate, glutamate, FAD)” value is listed as “significantly increased”; the “top 50 differentially expressed metabolites” value is listed as “increased”.
